Data from paper PMC10709440, “High-throughput ligand profile characterization in novel cell lines expressing seven heterologous insect olfactory receptors for the detection of volatile plant biomarkers” (Scientific Reports, 2023).
pEC50: −log10 of the molar value. Several values for one entry are separate records, joined by “and”; a condition that tells them apart may be missing. Equal entries are not always repeated. Where two headings read alike, the source gives them in different places.

Columns and labels:
Drosophila OR13a = target: T1, Drosophila OR13a (Drosophila melanogaster, UniProt Q9VXL0); test: Calcium ion fluorescence (GCaMP6) assay, OR13a stable HEK293 cell line; type: cell-based; conditions: for DF norm AVERAGE OR13a: normalized fluorescence change, values below 0.05 threshold given as 0; for dose-response, AVERAGE response: N 3
T1 construct: expressed in transfected cells
T1 sequence (Q9VXL0 1-418): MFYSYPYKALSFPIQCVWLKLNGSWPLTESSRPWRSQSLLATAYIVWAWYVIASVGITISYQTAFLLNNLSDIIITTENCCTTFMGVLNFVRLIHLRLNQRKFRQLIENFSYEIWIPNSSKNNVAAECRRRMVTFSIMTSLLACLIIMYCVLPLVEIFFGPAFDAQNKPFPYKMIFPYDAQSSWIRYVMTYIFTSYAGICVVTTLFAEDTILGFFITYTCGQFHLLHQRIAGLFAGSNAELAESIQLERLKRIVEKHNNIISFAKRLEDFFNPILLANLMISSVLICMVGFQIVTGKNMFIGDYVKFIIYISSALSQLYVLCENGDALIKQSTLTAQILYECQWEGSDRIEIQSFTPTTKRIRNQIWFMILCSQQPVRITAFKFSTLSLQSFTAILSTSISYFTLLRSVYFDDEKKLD
T1 sequence (Q9VNB5 1-486 partner): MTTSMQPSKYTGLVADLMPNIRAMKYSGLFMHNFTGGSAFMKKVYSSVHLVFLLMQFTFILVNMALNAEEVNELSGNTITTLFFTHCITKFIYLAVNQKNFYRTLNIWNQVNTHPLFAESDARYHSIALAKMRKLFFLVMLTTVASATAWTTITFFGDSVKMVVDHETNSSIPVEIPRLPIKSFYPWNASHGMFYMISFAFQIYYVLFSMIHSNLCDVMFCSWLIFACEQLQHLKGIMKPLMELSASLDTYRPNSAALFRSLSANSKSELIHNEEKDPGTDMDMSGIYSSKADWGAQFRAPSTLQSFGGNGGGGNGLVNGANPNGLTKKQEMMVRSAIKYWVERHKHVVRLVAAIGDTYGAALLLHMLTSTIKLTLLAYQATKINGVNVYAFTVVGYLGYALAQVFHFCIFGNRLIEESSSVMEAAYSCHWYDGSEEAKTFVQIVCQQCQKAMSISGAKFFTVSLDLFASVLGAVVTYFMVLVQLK
In short: (§1)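 HEK293 lines stably expressing each Drosophila OR with GCaMP6, doxycycline-induced (1 μg/mL) 48 or 72 h. Fluorescence recorded 5 s baseline then 30 s after VOC injection at pH 7.3; ΔF=(FMAX−F0)/F0, normalized to 50 µM VUAA1 response per line, triplicate wells averaged; concentration series 0.01–100 μM.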

Drosophila OR98a = target: T2, Drosophila OR98a (Drosophila melanogaster, UniProt Q9VAZ3); test: Calcium ion fluorescence (GCaMP6) assay, OR98a stable HEK293 cell line; type: cell-based; conditions: for DF norm AVERAGE OR98a: normalized fluorescence change, values below 0.05 threshold given as 0; for Average response: OR98a cell line, average of biological replicates, fraction of VUAA1 response
T2 construct: expressed in transfected cells
T2 sequence (Q9VAZ3 1-397): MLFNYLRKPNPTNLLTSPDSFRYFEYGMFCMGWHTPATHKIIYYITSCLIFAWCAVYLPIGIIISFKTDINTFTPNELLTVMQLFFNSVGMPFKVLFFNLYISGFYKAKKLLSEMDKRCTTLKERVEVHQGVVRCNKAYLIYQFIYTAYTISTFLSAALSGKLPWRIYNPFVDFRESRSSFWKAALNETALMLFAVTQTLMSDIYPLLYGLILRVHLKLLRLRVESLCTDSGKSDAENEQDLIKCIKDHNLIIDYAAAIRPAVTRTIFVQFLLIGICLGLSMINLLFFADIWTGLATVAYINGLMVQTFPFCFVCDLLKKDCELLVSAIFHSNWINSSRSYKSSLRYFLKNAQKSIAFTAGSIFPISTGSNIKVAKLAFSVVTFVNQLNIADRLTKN
T2 sequence (Q9VNB5 1-486 partner): T1 sequence (Q9VNB5 1-486 partner)
In short: as §1

[1] = HEK293, read-out: OR13a Average response (VUAA1-normalized), 1 μM VOC, 50 μM VUAA1 = 1, responses not exceeding 0.05 considered 0
[2] = HEK293, read-out: OR13a Average response (VUAA1-normalized), 10 μM VOC, 50 μM VUAA1 = 1, responses not exceeding 0.05 considered 0
[3] = HEK293, read-out: OR13a Average response (VUAA1-normalized), 100 μM VOC, 50 μM VUAA1 = 1, responses not exceeding 0.05 considered 0
[4] = HEK293, read-out: OR13a response (VUAA1-normalized response), VOC concentration 1 μM
[5] = HEK293, read-out: OR13a response (VUAA1-normalized response), VOC concentration 10 μM
[6] = HEK293, read-out: OR13a response (VUAA1-normalized response), VOC concentration 100 μM
[7] = HEK293, read-out: Average response
[8] = HEK293, read-out: OR98a Average response (VUAA1-normalized)
[9] = HEK293, read-out: OR98a response (VUAA1-normalized response)
[10] = the 13th table, VOC concentration 2.5
[11] = the 13th table, VOC concentration 5
[12] = the 13th table, VOC concentration 25
[13] = the 13th table, VOC concentration 50
[14] = the 13th table, VOC concentration 100
[15] = 1 μM VOC, 50 μM VUAA1 = 1, responses not exceeding 0.05 considered 0
[16] = 10 μM VOC, 50 μM VUAA1 = 1, responses not exceeding 0.05 considered 0
[17] = 100 μM VOC, 50 μM VUAA1 = 1, responses not exceeding 0.05 considered 0

| SMILES | activation at 1 µM (Drosophila OR13a; [1]) | activation at 10 µM (Drosophila OR13a; [2]) | activation at 100 µM (Drosophila OR13a; [3]) | activation at 1 µM (Drosophila OR13a; [4]) | activation at 10 µM (Drosophila OR13a; [5]) | activation at 100 µM (Drosophila OR13a; [6]) | DF norm AVERAGE OR13a (Drosophila OR13a; concentration 1) | DF norm AVERAGE OR13a (Drosophila OR13a; concentration 10) | DF norm AVERAGE OR13a (Drosophila OR13a; concentration 100) | activation at 1 µM (Drosophila OR98a; [7]) | activation at 10 µM (Drosophila OR98a; [7]) | activation at 100 µM (Drosophila OR98a; [7]) | activation at 1 µM (Drosophila OR98a; [9]) | activation at 10 µM (Drosophila OR98a; [9]) | activation at 100 µM (Drosophila OR98a; [9]) | DF norm AVERAGE OR98a (Drosophila OR98a; concentration 1) | DF norm AVERAGE OR98a (Drosophila OR98a; concentration 10) | DF norm AVERAGE OR98a (Drosophila OR98a; concentration 100) | further results |
| --- | --- | --- | --- | --- | --- | --- | --- | --- | --- | --- | --- | --- | --- | --- | --- | --- | --- | --- | --- |
| CCCCCC(=O)CC [3-octanone] | 0% | 0% | 2.55% | 0% | 0% | 0% | 0 | 0 | 0 | 0% | 0% | 16% | 0% | 0% | 16% | 0 | 0 | 0.1573 | activation at 1 µM (Drosophila OR98a; [8]): 0%; activation at 10 µM (Drosophila OR98a; [8]): 0%; activation at 100 µM (Drosophila OR98a; [8]): 16% |
| Cc1ccc(O)cc1 [4-methylphenol] | 4.62% | 2% | 1.38% | 0% | 0% | 0% | 0 | 0 | 0 | 0% | 2% | 2.76% | 0% | 0% | 0% | 0 | 0 | 0 |  |
| C=CC(O)C/C=C\CC (stereo not drawn) [(5Z)-octa-1,5-dien-3-ol] | 0% | 15% | 37% | 0% | 15% | 37% | 0 | 0.1531 | 0.3701 | 0% | 8% | 7% | 0% | 8% | 7% | 0 | 0.08127 | 0.07281 | pEC50 (Drosophila OR13a; EC50, fitted average curve, the 13th table, fit to the average curve, n 0.854956): 5.14; pEC50 (Drosophila OR13a; EC50, fitted parameter per biological replicate, the 13th table, OR13a D-R (5Z)-octa-1,5-dien-3-ol, individual replicate fits, MIN 0, n 1): 5.00 and 5.52 and 5.23; pEC50 (Drosophila OR13a; EC50, fitted parameter per biological replicate, the 13th table, individual replicate fits): 5.00 and 5.52 and 5.23; dose-response, response per biological replicate (Drosophila OR13a; [10]): 0 and 0.07532 and 0.2134; dose-response, AVERAGE response (Drosophila OR13a; [10]): 0.09623; dose-response, response per biological replicate (Drosophila OR13a; [11]): 0.1122 and 0.07908 and 0.2962; dose-response, AVERAGE response (Drosophila OR13a; [11]): 0.1625; dose-response, response per biological replicate (Drosophila OR13a; [12]): 0.1336 and 0.1252 and 0.4462; dose-response, AVERAGE response (Drosophila OR13a; [12]): 0.235; dose-response, response per biological replicate (Drosophila OR13a; [13]): 0.1449 and 0.1487 and 0.5376; dose-response, AVERAGE response (Drosophila OR13a; [13]): 0.2771; dose-response, response per biological replicate (Drosophila OR13a; [14]): 0.2093 and 0.133 and 0.6441; dose-response, AVERAGE response (Drosophila OR13a; [14]): 0.3288; MAX, fitted average curve (Drosophila OR13a; the 13th table, fit to the average curve, n 0.854956): 0.3433; MAX, fitted parameter per biological replicate (Drosophila OR13a; the 13th table, individual replicate fits): 0.2031 and 0.1439 and 0.6228 and 0.37 |
| C=C1[C@H]2CC[C@@H]3[C@H]2C(C)(C)CCC[C@]13C [(+)-longifolene] |  |  |  |  |  |  | 0 | 0 | 0 |  |  |  |  |  |  | 0 | 0.1258 | 0 | OR13a Average response (VUAA1-normalized) (Drosophila OR13a; [15]): 0.00; OR13a Average response (VUAA1-normalized) (Drosophila OR13a; [16]): 0.037; OR13a Average response (VUAA1-normalized) (Drosophila OR13a; [17]): 0.00; OR13a response (VUAA1-normalized response) (Drosophila OR13a; VOC concentration 1 μM): 0.00; OR13a response (VUAA1-normalized response) (Drosophila OR13a; VOC concentration 10 μM): 0.00; OR13a response (VUAA1-normalized response) (Drosophila OR13a; VOC concentration 100 μM): 0.00; OR98a response (VUAA1-normalized response) (Drosophila OR98a; VOC concentration 1 μM): 0.00; OR98a response (VUAA1-normalized response) (Drosophila OR98a; VOC concentration 10 μM): 0.13; OR98a response (VUAA1-normalized response) (Drosophila OR98a; VOC concentration 100 μM): 0.00; Average response (Drosophila OR98a; cc. 1 µM): 0.0106; Average response (Drosophila OR98a; cc. 10 µM): 0.13; Average response (Drosophila OR98a; cc. 100 µM): 0.0176 |
| C=C1CC[C@H]2O[C@]2(C)CC[C@@H]2[C@@H]1CC2(C)C [(-)-caryophyllene oxide] | 0% | 0% | 0% | 0% | 0% | 0% | 0 | 0 | 0 | 0% | 4% | 0% | 0% | 0% | 0% | 0 | 0 | 0 |  |
| C=C1CC/C=C(\C)CC[C@@H]2[C@@H]1CC2(C)C [(-)-trans-caryophyllene] | 0% | 11% | 10% | 0% | 11% | 10% | 0 | 0.1145 | 0.105 | 7% | 6% | 6% | 7% | 6% | 6% | 0.06975 | 0.06201 | 0.05748 |  |
| C=C(C)[C@H]1CC=C(C)CC1 [(R)-(+)-limonene] |  |  |  |  |  |  | 0 | 0 | 0 |  |  |  |  |  |  | 0 | 0 | 0 | OR13a Average response (VUAA1-normalized) (Drosophila OR13a; [15]): 0.00; OR13a Average response (VUAA1-normalized) (Drosophila OR13a; [16]): 0.0429; OR13a Average response (VUAA1-normalized) (Drosophila OR13a; [17]): 0.0285; OR13a response (VUAA1-normalized response) (Drosophila OR13a; VOC concentration 1 μM): 0.00; OR13a response (VUAA1-normalized response) (Drosophila OR13a; VOC concentration 10 μM): 0.00; OR13a response (VUAA1-normalized response) (Drosophila OR13a; VOC concentration 100 μM): 0.00; OR98a response (VUAA1-normalized response) (Drosophila OR98a; VOC concentration 1 μM): 0.00; OR98a response (VUAA1-normalized response) (Drosophila OR98a; VOC concentration 10 μM): 0.00; OR98a response (VUAA1-normalized response) (Drosophila OR98a; VOC concentration 100 μM): 0.00; Average response (Drosophila OR98a; cc. 1 µM): 0.03; Average response (Drosophila OR98a; cc. 10 µM): 0.00; Average response (Drosophila OR98a; cc. 100 µM): 0.03 |
